Our source for the EC50 values is patent US20150336889A1, “INDOLE DERIVATIVES, PHARMACEUTICAL COMPOSITIONS CONTAINING SUCH INDOLES AND THEIR USE AS DNA METHYLATION MODULATORS” (IKERCHEM, S.L., priority 2012, published 2015).

What all share (format): cell-based
In one experiment the test system is MCF-7. The experiment can be described thus: Cancer cell growth inhibition, MCF-7. The note with it: Homo sapiens, MCF7; Breast, MCF-7, cell viability, 72 h. How it is done:
(§1) Cell culture-based assays were used to evaluate the ability of compounds of the invention to inhibit cancer cell growth inhibition.
(§2) Cells were obtained from the American Type Culture Collection (ATCC) and European Collection of Cell Cultures (ECACC).
(§3) Cells were thawed in their appropriate media plus supplements (see table below). Cells were passaged at confluence by washing once in HBSS cation-free followed by a 3 minutes incubation with trypsin ([0.5 μg/ml]/EDTA [0.2 μg/ml]) (Gibco-BRL, 15400054) solution in HBSS at 37° C. (except non-adherent cell lines), and transferred to their appropriate media plus supplements. Prior to seeding at defined cell concentration, cells were recovered in medium, centrifuged and taken up in medium, and counted.
(§4) Cells were plated at 3000/5000/10000 cells/well in 100 μl media in tissue culture 96 well plates (Cultek). After 24 h, media was supplemented by 100 μl/well of diluted IPDNs at 100 μM.
(§5) The Hexosaminidase assay was used for the adherent cell lines, whereas the AlamarBlue® assay was used for the non-adherent cell lines.
(§6) Dose-response curves were generated by serial dilutions (1:1) of the compounds. […] Reagent blanks, containing media plus colorimetric reagent without cells were run on each plate. Blank values were subtracted from test values and were routinely 5-10% of uninhibited control values. Plates were incubated 72 h, and living cell number was determined by AlamarBlue® and Hexosaminidase test. The advantages of using those assays are that both can be done in the same microwell plate. AlamarBlue® assay: plates were incubated 72 h and living cell number was determined by AlamarBlue (Biosource DAL1100). After 4 h incubation at 37° C., relative fluorescent intensity, which correlates with the number of living cells, was read in a Cytofluor plate reader (Millipore) at 535/590 nm (Excitation/emission). The hexosaminidase activity was measured according to the following protocol: the media was removed and cells were washed once with PBS.
(§7) Data analysis was done by calculating the percentage of cell viability normalized in front of negative control values, which were considered as a 100%. The curve was adjusted using a sigmoidal dose-response (variable slope) equation and EC50 values were obtained from the equation
(§8) where, X is the logarithm of concentration. Y is the response. Bottom is the Y value at the bottom plateau Top is the Y value at the top plateau LogEC50 is the X value when the response is halfway between Bottom and Top. With different kinds of variables, this variable is sometimes called ED50 (effective dose, 50%), or IC50 (inhibitory concentration, 50%, used when the curve goes downhill).

The test system of a further experiment is SK-BR-3. Put plainly: Cancer cell growth inhibition, SK-BR-3. The note with it: Homo sapiens; Breast, SK-BR-3, cell viability, 72 h. The protocol: as §1, §2, §3, §4, §5
as §6, with “PBS. […]” for “PBS.”

Another experiment relates to T47D. The experiment can be described thus: Cancer cell growth inhibition, T47D. The conditions noted are these: Homo sapiens, Breast, cell viability, 72 h. How it is done:
as §1, §2, §3, §4, §5, §6, §7, §8

The test system of a further experiment is DU-145. Put plainly: Cancer cell growth inhibition, DU-145. The note with it: Homo sapiens; Prostate, DU-145, cell viability, 72 h. How it is done: as §1, §2, §3, §4, §5
as §6, with “PBS. […]” for “PBS.”

Another experiment deals with LnCaP. Put plainly: Cancer cell growth inhibition, LnCaP. The note with it: Homo sapiens, Prostate, cell viability, 72 h. How it is done:
as §1, §2, §3, §4, §5, §6, §7, §8

The next experiment relates to HCT-116. Put plainly: Cancer cell growth inhibition, HCT-116. The note with it: Homo sapiens; Colorectal, HCT-116, cell viability, 72 h. How it is done: as §1, §2, §3, §4, §5, §6, §7, §8
The test system of another experiment is HT-29. Put plainly: Cancer cell growth inhibition, HT-29. The note with it: Homo sapiens; Colorectal, HT-29, cell viability, 72 h. The protocol: as §1, §2, §3, §4, §5
as §6, with “PBS. […]” for “PBS.”

In the next experiment the test system is Colo205. Put plainly: Cancer cell growth inhibition, Colo205. The note with it: Homo sapiens, COLO 205; Colorectal, Colo205, cell viability, 72 h. How it is done:
as §1, §2, §3, §4, §5
as §6, with “PBS. […]” for “PBS.”

A further experiment concerns LoVo. The experiment can be described thus: Cancer cell growth inhibition, LoVo. The conditions noted are these: Homo sapiens, Colorectal, cell viability, 72 h. The protocol:
as §1, §2, §3, §4, §5
as §6, with “PBS. […]” for “PBS.”

The test system of the next experiment is NCI-H1650. Put plainly: Cancer cell growth inhibition, NCI-H1650. The conditions noted are these: Homo sapiens; Lung, NCI-H1650, cell viability, 72 h. The protocol: as §1, §2, §3, §4, §5
as §6, with “PBS. […]” for “PBS.”

Another experiment has as its system HepG2. Put plainly: Cancer cell growth inhibition, HepG2. The conditions noted are these: Homo sapiens; Liver, HepG2, cell viability, 72 h. The protocol: as §1, §2
Cells were thawed in their appropriate media plus supplements (see table below). Cells were passaged at confluence by washing once in HBSS cation-free followed by a 3 minutes incubation with trypsin ([0.5 μg/ml]/EDTA [0.2 μg/ml]) (Gibco-BRL, 15400054) solution in HBSS at 37° C. (except non-adherent cell lines), and transferred to their appropriate media plus supplements. Prior to seeding at defined cell concentration, cells were recovered in medium, centrifuged and taken up in medium, and counted. […]
Dose-response curves were generated by serial dilutions (1:1) of the compounds. […] Plates were incubated 72 h, and living cell number was determined by AlamarBlue® and Hexosaminidase test. […] AlamarBlue® assay: plates were incubated 72 h and living cell number was determined by AlamarBlue (Biosource DAL1100). After 4 h incubation at 37° C., relative fluorescent intensity, which correlates with the number of living cells, was read in a Cytofluor plate reader (Millipore) at 535/590 nm (Excitation/emission). The hexosaminidase activity was measured according to the following protocol: the media was removed and cells were washed once with PBS. […]

Another experiment has as its system SK-HEP-1. The experiment can be described thus: Cancer cell growth inhibition, SK-HEP-1. The conditions noted are these: Homo sapiens, SK-HEP1; Liver, SK-HEP-1, cell viability, 72 h. How it is done: as §1, §2, §3, §4, §5
as §6, with “PBS. […]” for “PBS.”

The test system of the next experiment is HT-1080. Put plainly: Cancer cell growth inhibition, HT-1080. The note with it: Homo sapiens; HT-1080, cell viability, 72 h. The protocol: as §1, §2, §3, §4, §5, §6, §7, §8
The test system of a further experiment is MDA-MB-435. The experiment can be described thus: Cancer cell growth inhibition, MDA-MB-435. The conditions noted are these: Homo sapiens; Melanoma, MDA-MB-435, cell viability, 72 h. The protocol: as §1, §2, §3, §4, §5, §6, §7, §8
The test system of a further experiment is 143B. Put plainly: Cancer cell growth inhibition, 143B. The conditions noted are these: Homo sapiens, Osteosarcoma, cell viability, 72 h. The protocol: as §1, §2, §3, §4, §5, §6, §7, §8
For another experiment, the system named is Daoy. The experiment can be described thus: Cancer cell growth inhibition, Daoy. The note with it: Homo sapiens, Brain, cell viability, 72 h. How it is done:
as §1, §2, §3, §4, §5, §6, §7, §8

The subject of the next experiment is U-87MG. The experiment can be described thus: Cancer cell growth inhibition, U-87MG. The note with it: Homo sapiens, Brain, cell viability, 72 h. How it is done:
as §1, §2, §3, §4, §5, §6, §7, §8

A further experiment deals with SK-OV-3. The experiment can be described thus: Cancer cell growth inhibition, SK-OV-3. The note with it: Homo sapiens; Ovarian, SK-OV-3, cell viability, 72 h. How it is done: as §1, §2, §3, §4, §5
as §6, with “PBS. […]” for “PBS.”

A further experiment concerns HeLa. The experiment can be described thus: Cancer cell growth inhibition, HeLa. The note with it: Homo sapiens, Cervical, cell viability, 72 h. How it is done: as §1, §2, §3, §4, §5
as §6, with “PBS. […]” for “PBS.”

In a further experiment the test system is A-431. Put plainly: Cancer cell growth inhibition, A-431. The conditions noted are these: Homo sapiens; Epidermoid, A-431, cell viability, 72 h. How it is done:
as §1, §2, §3, §4, §5, §6, §7, §8

The next experiment has as its system CCFR-CEM. The experiment can be described thus: Cancer cell growth inhibition, CCFR-CEM. The conditions noted are these: Hematologic, cell viability, 72 h. The protocol: as §1, §2, §3, §4, §5, §6, §7, §8
Another experiment relates to Jurkat. Put plainly: Cancer cell growth inhibition, Jurkat. The conditions noted are these: Homo sapiens, Hematologic, cell viability, 72 h. The protocol: as §1, §2, §3, §4, §5, §6, §7, §8
Another experiment concerns RAMOS. The experiment can be described thus: Cancer cell growth inhibition, RAMOS. The note with it: Homo sapiens, Hematologic, cell viability, 72 h. How it is done: as §1, §2, §3, §4, §5, §6, §7, §8
A further experiment relates to RPMI-8226. The experiment can be described thus: Cancer cell growth inhibition, RPMI-8226. The conditions noted are these: Homo sapiens; Multiple Myelome, RPMI-8226, cell viability, 72 h. How it is done:
as §1, §2, §3, §4, §5, §6, §7, §8

As to `O=C(Cn1cc(-c2ccc(O)cc2)c2c(F)cc(F)cc21)c1ccc(O)cc1` [Example 16, 2-[4,6-difluoro-3-(4-hydroxyphenyl)-1H-indol-1-yl]-1-(4-hydroxyphenyl) ethanone], the EC50 with MCF-7 stood at 41 µM; in the experiment with SK-BR-3, 59 µM; with T47D, 31 µM; in the experiment with DU-145 it was 65 µM; in the experiment on LnCaP, 43 µM; with HCT-116, 37 µM. For the same compound, the EC50 in the experiment with HT-29 came to 66 µM; in the experiment with Colo205, 31 µM; in the experiment on LoVo, 50 µM; in the experiment with NCI-H1650, 76 µM; in the experiment with HepG2 it was 44 µM; in the experiment with SK-HEP-1, 35 µM. Besides, the EC50 is 52 µM in the experiment with HT-1080; 57 µM with MDA-MB-435; 31 µM in the experiment with 143B; 50 µM in the experiment with Daoy; 95 µM in the experiment on U-87MG; 44 µM in the experiment with SK-OV-3. In addition, the EC50 with HeLa is 68 µM; in the experiment on A-431 it was 66 µM; with CCFR-CEM it was 57 µM; with Jurkat it was 30 µM; with RAMOS it was 35 µM; in the experiment with RPMI-8226, 65 µM.

Consider `COc1cc(OC)c2c(-c3ccc(O)cc3)cn(CC(=O)c3ccc(O)cc3)c2c1` [Example 6, 1-(4-hydroxyphenyl)-2-[3-(4-hydroxyphenyl)-4,6-dimethoxy-1H-indol-1-yl]ethanone], for which the EC50 in the experiment on MCF-7 turned out to be 6.2 µM; in the experiment on SK-BR-3, 3.8 µM; in the experiment on T47D, 11 µM; with DU-145 it was 16 µM; in the experiment on LnCaP it was 4.8 µM; in the experiment on HCT-116 it was 5.7 µM. In addition, the EC50 in the experiment on HT-29 was determined as 11 µM; in the experiment on Colo205, 16 µM; in the experiment on LoVo, 12 µM; in the experiment with NCI-H1650 it was 11 µM; in the experiment on HepG2, 19 µM; in the experiment with SK-HEP-1 it was 31 µM. In addition, the EC50 in the experiment with HT-1080 was found to be 9.7 µM; with MDA-MB-435, 4.3 µM; in the experiment with 143B it was 19 µM; in the experiment on Daoy, 4.2 µM; in the experiment on U-87MG it was 13 µM; with SK-OV-3, 4.1 µM. The EC50 in the experiment with HeLa was 6.9 µM; with A-431, 11 µM; in the experiment on CCFR-CEM, 6.3 µM; with Jurkat, 1.9 µM; with RAMOS, 6.6 µM; with RPMI-8226, 6.4 µM.

As usually defined, the EC50 is the concentration at which the effect is half-maximal. Higher therefore signals weaker potency.
